Experiments:
[1] = tested on: diazepam effect in the pentetrazole test; assay: Antagonism of diazepam in the pentetrazole test; assay type: in vivo, mice; settings: for ED50: Mus musculus, po, 0.25 h, mice, diazepam 5 mg/kg i.p. 1 hour before pentetrazole 120 mg/kg i.p., test compound p.o. 15 minutes before pentetrazole
Experimental: This property was used to evaluate the test described hereinafter which permits the determination of compounds which are capable of antagonizing the central properties of 1,4-benzodiazepines which have tranquillizing activity.
The antagonistic activity of the compounds investigated, i.e. their ability to counteract the activity of the diazepam in the pentetrazole test, is determined by counting the mice which suffer convulsive attacks in this test.
(§1) In the following Table there are presented the results which have been obtained with representative members of the class of compound defined by formula I in the test previously described. The ED50 is the amount of test compound in mg/kg (p.o.) which counteracts in 50% of the animals the diazepam effect in the above test. Moreover, the Table contains the IC50 value defined above for all test compounds listed therein as well as data concerning the acute toxicity of certain of these compounds (LD50 in mg/kg in the case of single oral administration to mice).

[2] = molecular target: central benzodiazepine receptors (cerebral cortex); assay: Inhibition of binding of tritiated diazepam at the specific benzodiazepine receptors in the cerebral cortex
Experimental: The affinity of compounds of formula I to the central benzodiazepine receptors was determined according to the method described in Life Science 20, 2101-2110 (1977) and Science 198, 849-851 (1977). According to this method, the inhibition of the binding of tritiated diazepam at the specific benzodiazepine receptors in the cerebral cortex by the respective test substances is ascertained. The IC50 ("50% inhibiting concentration") is that concentration of the respective test substance which brings about a 50 percent inhibition of the specific binding of the tritiated diazepam at the specific benzodiazepine receptors in the cerebral cortex.

[3] = tested on: Schistosoma mansoni; assay: In vitro schistosomicidal activity (motility of worm pairs); assay type: cell-based; design: key to Activity: worm pairs motionless within 15 minutes; b: worm pairs show normal motility during the test period of 120 hours; settings: for Activity: 37° C., 120 hours
Experimental: In order to test the in vitro activity of preparations, worm pairs of Schistosoma mansoni are isolated from mice and incubated at 37° C. in a nutrient medium. Preparations are added in the form of a solution or as a suspension. The motility of the worms is observed under a microscope and registered during the test period of 120 hours. A schistosomicidal activity of a preparation manifests itself in the more or less rapid loss of motility of the worms. Control worms in the nutrient medium without the addition of a preparation maintain their normal motility during the entire test period of 120 hours.

[4] = tested on: Schistosoma mansoni; assay: Schistosomicidal activity in infected golden hamsters; assay type: in vivo; settings: Hamster
Experimental: (§2) Mice and golden hamsters are infected subcutaneously with 60 cercaria of Schistosoma mansoni. About 42 days after the infection, they are treated orally with a single dosage of the preparation to be tested. 5 animals are used per preparation and dosage. 10 untreated animals are used as controls. The animals are killed and dissected 2 weeks (hamster) or 3 weeks (mice) after the treatment. Worm pairs in mesenteric veins, portal vein and liver are dissected-out, counted and the condition of the worms (living or dead) are registered. A schistosomicidal activity of a preparation manifests itself in the appearance of dead worms in the vessels of the liver. Dead worms are never found in untreated control animals. The test is evaluated by calculating the percentage of dead worm pairs in the liver of infected, treated animals.

[5] = tested on: Schistosoma mansoni; assay: Schistosomicidal activity in infected mice; assay type: in vivo; settings: for Schistosomicidal activity in %: Mouse
Experimental: as §2

[6] = Acute toxicity, single oral administration to mice; settings: mouse, in vivo
Description: as §1

Row | SMILES | IC50 [2] [nM] | ED50 [1] [mg/kg] | further results
1 | CN1C(=O)CN=C(c2ccccc2)c2cc(Cl)ccc21 [diazepam, reference compound] | – | – | experimental animals protected from convulsive attacks in the pentetrazole test ([1]; diazepam 5 mg/kg i.p., more than 900 mice): protects all experimental animals from convulsive attacks
2 | CN1Cc2c(C(=O)OC(C)(C)C)ncn2-c2ccc(F)cc2C1=O [(a) F H --CH3 O, t-butyl 8-fluoro-5,6-dihydro-5-methyl-6-oxo-4H-imidazo[1,5-a][1,4]benzodiazepine-3-carboxylate] | 1.4 | 8.4 | –
3 | CC1N=C(c2ccccc2Cl)c2cc([N+](=O)[O-])ccc2NC1=O (single isomer, unassigned; (+)) [Compound S, (+)-5-(o-chlorophenyl)-1,3-dihydro-3-methyl-7-nitro-2H-1,4-benzodiazepin-2-one, reference compound] | – | – | Activity ([3]; Compound S 25 ug/ml alone): a (worm pairs motionless within 15 minutes); Schistosomicidal activity in % ([4]; Compound S 75 mg/kg p.o. alone): 100%; Schistosomicidal activity in % ([5]; Compound S 75 mg/kg p.o. alone): 100%
4 | CN1Cc2c(C(=O)OC(C)(C)C)ncn2-c2ccccc2C1=S [(a) H H --CH3 S, t-butyl 5,6-dihydro-5-methyl-6-thioxo-4H-imidazo[1,5-a][1,4]benzodiazepine-3-carboxylate] | 8.9 | 7.1 | –
5 | CN1Cc2c(C(=O)OC(C)(C)C)ncn2-c2cccc(Br)c2C1=O [(a) H Br --CH3 O, t-butyl 7-bromo-5,6-dihydro-5-methyl-6-oxo-4H-imidazo[1,5-a][1,4]benzodiazepine-3-carboxylate] | 2.3 | 0.13 | –
6 | CN1Cc2c(C(=O)OC(C)(C)C)ncn2-c2cccc(C#N)c2C1=O [(a) H CN --CH3 O, t-butyl 7-cyano-5,6-dihydro-5-methyl-6-oxo-4H-imidazo[1,5-a][1,4]benzodiazepine-3-carboxylate] | 10 | 1.22 | –
7 | CN1Cc2c(C(=O)OC(C)(C)C)ncn2-c2ccccc2C1=O [(a) H H --CH3 O, t-butyl 5,6-dihydro-5-methyl-6-oxo-4H-imidazo[1,5-a][1,4]benzodiazepine-3-carboxylate] | 3.3 | 4.7 | LD50 [6]: 625 mg/kg
8 | CN1Cc2c(C(=O)OC(C)(C)C)ncn2-c2cccc(Cl)c2C1=O [(a) H Cl --CH3 O, t-butyl 7-chloro-5,6-dihydro-5-methyl-6-oxo-4H-imidazo[1,5-a][1,4]benzodiazepine-3-carboxylate] | 3 | 0.2 | Activity ([3]; Compound A 25 ug/ml alone): b; Activity ([3]; Compound A 100 ug/ml alone): b; influence on schistosomicidal activity of compound S ([3]; in vitro test): not influenced detrimentally; Schistosomicidal activity in % ([4]; Compound A 225 mg/kg p.o. alone): 0%; LD50 [6]: 312 mg/kg; Schistosomicidal activity in % ([5]; Compound A 300 mg/kg p.o. alone): 0%; influence on schistosomicidal activity of compound S ([5]; animal tests (mice and hamsters)): not influenced detrimentally
9 | CN1Cc2c(C(=O)OC(C)(C)C)ncn2-c2cccc(I)c2C1=O [(a) H I --CH3 O, t-butyl 5,6-dihydro-7-iodo-5-methyl-6-oxo-4H-imidazo[1,5-a][1,4]benzodiazepine-3-carboxylate] | 2.6 | 0.14 | –

Source: patent publication US4352817A, “Imidazo-diazepines and their use” (priority 1982, dated 1982)
